Source: patent publication US8299097B2, “Methods for treating inflammatory disorders” (The Brigham and Women's Hospital, Inc., priority 2008, dated 2012)

Experiments:
human P2Y12 = human P2Y12 (Homo sapiens, UniProt Q9H244); experiment: ERK activation (phosphorylation immunoblot) in P2Y12-expressing CHO cells; type: cell-based; set-up: polyhistidine (HIS) tag (C); expressed in transfected cells; conditions: for ERK activation by agonist: stimulated 15 min
Experimental: FIG. 1. Activation by recombinant human P2Y12 receptors in response to cys-LTs. The human P2Y12 receptor cDNA was cloned in forward and reverse orientation into the expression vector pEF1/His B and transfected into CHO cells using Fugene HD reagent. Stably-expressing clones were selected using G418 (1000 μg/ml), and expression of the construct was confirmed by cytofluorographic detection of the HIS tag. 1A. […] Results in second experiment were identical. 1B. SDS-PAGE immunoblots showing phosphorylation of ERK2 by CHO cells stably expressing human P2Y12 receptors in reverse (negative control) or forward orientations. […] The blots were stripped and re-probed with an antibody (Ab) recognizing total ERK1 and ERK2. […] 1C. Effect of the selective P2Y12 receptor antagonist 2-MesAMP (MeS) on ligand-induced ERK phosphorylation. P2Y12 receptor expressing CHO cells were stimulated with the same doses of agonists used in 1A, in the absence or presence of 2-MesAMP (100 μM). 1D. Comparison of P2Y12 receptor-mediated responses to cys-LTs with those of recombinant human CysLT1R and CysLT2R expressed in CHO cells, and the effect of the CysLT1R antagonist MK571 (1 μM). Data in 1B-1D are from individual experiments that were repeated at least 3 times with similar results.
FIG. 8. […] Cells were stably transfected with the human P2Y12 construct and stimulated for 15 minutes with the indicated ligand concentrations. […] Results in a second experiment were similar.
A P2Y12 receptor cDNA was amplified by reverse transcriptase polymerase chain reaction (RT-PCR) from RNA extracted from primary hMCs and cloned into a mammalian expression vector. Expression was confirmed by detection of a histidine (HIS) tag by flow cytometry. Another cohort of CHO cells were stably transfected with a P2Y12 receptor construct in reverse orientation as a negative control. […] The cys-LT-induced ERK activation blocked by pre-treatment of the cells with pertussis toxin (PTX), was attenuated by treatment with the P2Y12 receptor-selective antagonist 2-methylthioadenosine monophosphate (2-MesAMP) (FIG. 1C), and was resistant to MK571, an inhibitor that blocks CysLT1R and some P2Y receptors (Mamedova, L., et al. 2005. Biochem. Pharmacol. 71:115-125). […] These responses were resistant to PTX and 2-MesAMP, and susceptible to MK571 in the case of the CysLT1R transfectants.
A human P2Y12 receptor cDNA was amplified by 30 cycles of PCR from reverse-transcribed total RNA extracted from primary cord blood hMCs. The primer sequences were 5′-[…] (SEQ ID NO: 1) and 3′-[…] (SEQ ID NO: 2). The fragment was cloned into a TA vector (INVITROGEN™). After verifying the nucleotide sequence, the fragment was subcloned into the multiple cloning site of the expression vector pEF1/His B, encoding a C-terminal polyhistidine (HIS) tag. […]

LAD2 cells = experiment: MIP-1β generation by LAD2 cells (ELISA); type: cell-based, human
Experimental: FIG. 2. Requirement for P2Y12 receptors in LTE4-mediated LAD2 cell activation. 2A. Calcium flux of LAD2 cells stimulated with the indicated agonists (500 nM) in the presence or absence of the P2Y12 receptor-selective antagonist 2-MeSAMP (100 μM). […] 2B. […] Cells sensitized overnight with IgE and challenged with anti-IgE were used as the positive control. 2C. […] Results in 2B and 2C are mean±SEM from three independent experiments each. 2D. Effect of shRNA-mediated knockdown of P2Y12 receptor mRNA expression by LAD2 cells.
FIG. 9. Effect of apyrase treatment on LT-mediated activation of LAD2 cells. 9A. […] Concentrations of MIP-1β were measured by ELISA. 9B. […] Lysates were resolved by SDS-PAGE and probed with the indicated antibodies against phospho- and total ERK. Results in 9A are the mean±½ range from two experiments, while 9B is representative of two experiments.
Pre-treatment of the LAD2 cells with 2-MesAMP blocked the LTE4-mediated increment in MIP-1β production by >50% (FIG. 2B). […] To exclude potential off-target effects of the inhibitors, samples of LAD2 cells were transfected with lentiviruses encoding a P2Y12 sequence-specific shRNA, a CysLT1R-specific shRNA, or an empty vector control before stimulation. […] LTE4- and LTD4-dependent production of PGD2 were abrogated by the knockdowns of P2Y12 and CysLT1R, respectively (FIG. 2C, bottom). Neither GPCR knockdown altered MIP-1β generation or PGD2 production in response to IgE-anti-IgE (FIG. 2C). LTE4-mediated MIP-1β generation (FIG. 9A) and ERK activation (FIG. 9B) were not altered by treatment of LAD2 cells with apyrase to degrade extracellular ADP.
The concentration of MIP-1β was measured by an ELISA (ENDOGEN®). PGD2 was quantitated by a PGD2-methoxylamine hydrochloride (PGD2-MOX) assay.

human P2Y12, sequence (Q9H244 whole entry): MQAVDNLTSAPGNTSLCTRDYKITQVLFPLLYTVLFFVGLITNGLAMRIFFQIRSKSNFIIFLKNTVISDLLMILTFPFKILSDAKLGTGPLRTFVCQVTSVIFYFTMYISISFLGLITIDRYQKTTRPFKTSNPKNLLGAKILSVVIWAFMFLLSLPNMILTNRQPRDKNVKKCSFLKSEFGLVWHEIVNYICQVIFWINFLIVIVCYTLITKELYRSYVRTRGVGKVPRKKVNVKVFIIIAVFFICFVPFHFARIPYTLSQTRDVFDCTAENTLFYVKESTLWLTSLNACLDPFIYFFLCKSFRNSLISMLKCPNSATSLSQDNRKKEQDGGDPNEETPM

## CCCCC/C=C\C\C=C/C=C/C=C/[C@@H](SC[C@H](N)C(=O)NCC(=O)O)[C@@H](O)CCCC(=O)O [LTD4]
Human P2Y12
  ERK activation by agonist: robust, dose-dependent ERK activation

## CCCCC/C=C\C\C=C/C=C/C=C/[C@@H](SC[C@H](N)C(=O)O)[C@@H](O)CCCC(=O)O [LTE4]
Human P2Y12
  ERK activation by agonist: robust, dose-dependent ERK activation
LAD2 cells; LTE4 100 and 500 nM, 6 h
  MIP-1β generation: induced the generation of large amounts of MIP-1β

## CN(C)C(=O)CCSC(SCCC(=O)O)c1cccc(/C=C/c2ccc3ccc(Cl)cc3n2)c1 (centres unmarked) [MK571]
Human P2Y12; 2-MesAMP 100 μM, MK571 1 μM
  effect on cys-LT-induced ERK activation: resistant
LAD2 cells; 2-MesAMP 100 μM, MK571 1 μM
  effect on MIP-1β response to LTD4 and LTE4: suppressed the response to both ligands
